From patent US11999742B2, “Substituted pyrrolo[1,2-b]pyridazines as anthelmintics” (BOEHRINGER INGELHEIM VETMEDICA GMBH, priority 2021, dated 2024)

Experiments:
[1] = tested on: L4 stage larvae of Dirofilaria immitis; assay: Motility of L4 stage Dirofilaria immitis larvae, 3 days, dose response; assay type: cell-based; conditions: 72 h, read-out: EC50, motility of L4 stage D. immitis, three days at 37° C., 5% CO2, vs DMSO control
[2] = tested on: Microfilaria of Dirofilaria immitis; assay: Motility of Dirofilaria immitis microfilariae in microtiter plate, 3 days, dose response; assay type: cell-based; conditions: 72 h, read-out: EC50, motility of D. immitis microfilaria, three days at 37° C., 5% CO2, vs DMSO control
[3] = tested on: Haemonchus contortus L1 larvae; assay: Haemonchus contortus larval development L1 to L3, 4 days, dose response; conditions: 96 h, read-out: EC50, development of H. contortus larvae from L1 to L3
Description: Biological Example 2: Screening Method to Test Activity of Compounds Against Haemonchus contortus

Compound | EC50 [1] | EC50 [2] | EC50 [3]
Cc1cc2c(C(C)(C)C)c(C(=O)NC3CCCc4sccc43)cnn2c1-c1cc(F)cc(Cl)c1Cl (centres unmarked) [Compound A537] | 0.01 to 0.1 µM | < 0.01 µM | –
Cc1cc2c(C(C)(C)C)c(C(=O)N[C@H]3CCc4ncccc43)cnn2c1-c1cc(F)cc(Cl)c1Cl [Compound A559] | 0.01 to 0.1 µM | 0.01 to 0.1 µM | 0.01 to 0.1 µM
CN(C)c1c(C(=O)N[C@H]2CCOc3ccccc32)cnn2c(-c3cc(Cl)cc(Cl)c3Cl)c(Cl)cc12 [Compound A473] | < 0.01 µM | 0.01 to 0.1 µM | < 0.01 µM
Cc1cc2c(C(C)(C)C)c(C(=O)N(C)[C@H]3CCOc4ccccc43)cnn2c1-c1cc(F)cc(Cl)c1Cl [Compound A543, 4-tert-butyl-7-(2,3-dichloro-5-fluorophenyl)-N-[(4S)-3,4-dihydro-2H-1-benzopyran-4-yl]-N,6-dimethylpyrrolo[1,2-b]pyridazine-3-carboxamide] | 1 to 10 µM | 1 to 10 µM | –
Cc1cc2c(C(C)(C)C)c(C(=O)N[C@H]3CC4(CCCC4)Oc4ccccc43)cnn2c1-c1cc(F)cc(Cl)c1Cl [Compound A548] | 1 to 10 µM | 1 to 10 µM | –
Cc1cc2c(C(C)(C)C)c(C(=O)N[C@H]3CCn4cncc43)cnn2c1-c1cc(F)cc(Cl)c1Cl [Compound A552] | 1 to 10 µM | 1 to 10 µM | –
CC(C)c1c(C(=O)N[C@H]2CCOc3ccccc32)cnn2c(-c3cc(Cl)cc(Cl)c3)cc(Cl)c12 [Compound A467] | 0.1 to 1 µM | 0.1 to 1 µM | –
Cc1cc2c(C(C)(C)C)c(C(=O)N[C@H]3CCOc4ccccc43)cnn2c1-c1cc(Cl)cc(Cl)c1 [Compound A464] | < 0.01 µM | < 0.01 µM | –
Cc1cc(-c2cc(Cl)cc(Cl)c2)n2ncc(C(=O)N[C@H]3CCOc4ccccc43)c(C(C)C)c12 [Compound A469] | 0.01 to 0.1 µM | 0.01 to 0.1 µM | –
Cc1cc2c(C(C)(C)C)c(C(=O)N[C@H]3CCc4cnccc43)cnn2c1-c1cc(F)cc(Cl)c1Cl [Compound A556] | 1 to 10 µM | 1 to 10 µM | –
Cc1cc2c(C(C)C)c(C(=O)NN3CCOc4ccccc43)cnn2c1-c1cc(Cl)cc(Cl)c1 [Compound A497] | – | 0.01 to 0.1 µM | 0.01 to 0.1 µM
CC(C)c1c(C(=O)N[C@H]2CCOc3ccccc32)cnn2c(-c3cc(Cl)cc(Cl)c3)ccc12 [Compound A470] | – | 1 to 10 µM | –
Cc1cc2c(N3CCOCC3)c(C(=O)N[C@H]3CCOc4ccccc43)cnn2c1-c1cc(F)cc(F)c1F [Compound A491] | < 0.01 µM | < 0.01 µM | –
Cc1cc2c(N3CC(C)(F)C3)c(C(=O)N[C@H]3CCOc4ccccc43)cnn2c1-c1cc(F)cc(Cl)c1Cl [Compound A562] | 1 to 10 µM | 1 to 10 µM | –
CC1(C)CN(c2c(C(=O)N[C@H]3CCOc4ccccc43)cnn3c(-c4cc(Cl)cc(Cl)c4Cl)c(Cl)cc23)C1 [Compound A515] | – | – | 1 to 10 µM
Cc1cc2c(C(C)(C)C)c(C(=O)N[C@@H]3CCc4sc(Br)nc43)cnn2c1-c1cc(F)cc(Cl)c1Cl [Compound A536b] | 1 to 10 µM | 1 to 10 µM | –
Cc1cc2c(N3CCOCC3)c(C(=O)N[C@H]3CCOc4ccccc43)cnn2c1-c1cc(F)cc(Cl)c1Cl [Compound A490] | < 0.01 µM | < 0.01 µM | –
CC(C)c1c(C(=S)N[C@H]2CCOc3ccccc32)cnn2c(-c3cc(F)cc(Cl)c3Cl)c(Cl)cc12 [Compound A539, 6-chloro-7-(2,3-dichloro-5-fluorophenyl)-N-[(4S)-3,4-dihydro-2H-1-benzopyran-4-yl]-4-(propan-2-yl)pyrrolo[1,2-b]pyridazine-3-carbothioamide] | 0.1 to 1 µM | 0.01 to 0.1 µM | –
Cc1cc2c(N(C)C)c(C(=O)N[C@H]3CCOc4ccccc43)cnn2c1-c1cc(Cl)cc(Cl)c1Cl [Compound A568] | – | < 0.01 µM | < 0.01 µM
Cc1cc2c(C(C)(C)C)c(C(=O)N[C@H]3CC(C)(C)Oc4ccccc43)cnn2c1-c1cc(F)cc(Cl)c1Cl [Compound A547] | 1 to 10 µM | 1 to 10 µM | –

Compound | EC50 [1] | EC50 [2] | EC50 [3]
Cc1cc2c(C(C)(C)C)c(C(=O)N[C@H]3CCOc4ccccc43)cnn2c1-c1cccc(Cl)c1Cl [Compound A519] | < 0.01 µM | < 0.01 µM | –
Cc1cc2c(C(C)C)c(C(=O)Nc3cccc4ccccc34)cnn2c1-c1cc(Cl)cc(Cl)c1 [Compound A521] | 0.1 to 1 µM | – | –
Cc1cc2c(C(C)C)c(C(=O)N[C@H]3CCOc4ccccc43)cnn2c1-c1cc(F)cc(Cl)c1Cl [Compound A489] | < 0.01 µM | < 0.01 µM | –
Cc1cc2c(C(C)(C)C)c(C(=O)N[C@H]3CCOc4ccncc43)cnn2c1-c1cc(F)cc(Cl)c1Cl [Compound A569] | – | < 0.01 µM | –
CC1(F)CN(c2c(C(=O)N[C@H]3CCOc4ccccc43)cnn3c(-c4cc(F)cc(Cl)c4Cl)c(Cl)cc23)C1 [Compound A514] | – | 1 to 10 µM | –
Cc1cc2c(C(C)(C)C)c(C(=O)N[C@H]3CCc4ccccc43)cnn2c1-c1cc(Cl)cc(Cl)c1 [Compound A480] | 0.1 to 1 µM | 1 to 10 µM | –
CC(C)c1c(C(=O)N[C@H]2CCOc3ccccc32)cnn2c(-c3cc(Cl)cc(Cl)c3)cc(C(F)(F)F)c12 [Compound A468] | – | 1 to 10 µM | –
Cc1cc2c(C(C)(C)C)c(C(=O)N[C@H]3CCOc4ccccc43)cnn2c1N1CCOCC1 [Compound A529] | 0.1 to 1 µM | 1 to 10 µM | –
Cc1cc2c(C(C)(C)C)c(C(=O)N[C@H]3CCCc4cc(F)ccc43)cnn2c1-c1cc(F)cc(Cl)c1Cl [Compound A538] | 1 to 10 µM | 1 to 10 µM | –
Cc1cc2c(C(C)(C)C)c(C(=O)N[C@H]3COc4ccccc43)cnn2c1-c1cc(F)cc(Cl)c1Cl [Compound A545] | 1 to 10 µM | – | –
Cc1cc2c(C(C)(C)C)c(C(=O)N[C@H]3CCOc4ccccc43)cnn2c1-c1cc(Cl)cc(Cl)c1Cl [Compound A472] | – | < 0.01 µM | < 0.01 µM
CC(C)(C)c1c(C(=O)N[C@H]2CCc3ccccc32)cnn2c(-c3cc(Cl)cc(Cl)c3)c(Cl)cc12 [Compound A492] | – | 0.01 to 0.1 µM | 0.1 to 1 µM
Cc1cc2c(C(C)(C)C)c(NC(=O)NC3CCCc4ncsc43)cnn2c1-c1cc(F)cc(Cl)c1Cl (centres unmarked) [Compound A535] | – | – | 1 to 10 µM
CC1(F)CN(c2c(C(=O)N[C@H]3CCOc4ccccc43)cnn3c(-c4cc(Cl)cc(Cl)c4Cl)c(Cl)cc23)C1 [Compound A509] | – | 0.1 to 1 µM | –
Cc1cc2c(C(C)(C)C)c(C(=O)N[C@H]3CCCc4cnn(C(C)C)c43)cnn2c1-c1cc(F)cc(Cl)c1Cl [Compound A546] | 1 to 10 µM | – | –
CN(C)c1c(C(=O)N[C@H]2CCOc3ccccc32)cnn2c(-c3cc(Cl)cc(Cl)c3)c(Cl)cc12 [Compound A475] | – | 0.1 to 1 µM | 0.01 to 0.1 µM
Cc1cc2c(N3CC(C)(F)C3)c(C(=O)N[C@H]3CCOc4ccccc43)cnn2c1-c1cc(Cl)cc(Cl)c1Cl [Compound A508] | – | 1 to 10 µM | –
Cc1cc2c(N3CC(C)(C)C3)c(C(=O)N[C@H]3CCOc4ccccc43)cnn2c1-c1cc(F)cc(Cl)c1Cl [Compound A564] | 1 to 10 µM | 1 to 10 µM | –
Cc1cc2c(N3CC(C)(C)C3)c(C(=O)N[C@H]3CCOc4ccccc43)cnn2c1-c1cc(F)cc(Cl)c1Cl [Compound A512] | – | – | 1 to 10 µM
